Earlier results as cited in patent publication US20030187074A1, “Oral compositions for treatment of diabetes” (priority 2002, published 2003).

Conditions: Physician's Desk Reference, 2001, page 2980

Structure (SMILES): CN(CCOc1ccc(CC2SC(=O)NC2=O)cc1)c1ccccn1 (stereo not shown) [rosiglitazone]
- half-life of elimination from the human body: 3 to 4 h
